In PubChem BioAssay (NCI):
Several values for one entry are separate records, joined by “and”; a condition that tells them apart may be missing. Equal values may be shown once.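 Values below derive from 48-hour exposures of cells grown in 96-well plates, with endpoints linearly interpolated between the two concentrations bracketing the appropriate inhibition level. Here, GI50 denotes the concentration required for 50% inhibition of growth. TGI denotes the concentration required for complete inhibition of growth.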

How the values were obtained:
Assay in all cases: NCI tumour cell line growth inhibition, 48 h; in the data active means GI50 below about 0.43 µM; inactive means the rest
[1] = test system: PC-3 prostate
[2] = test system: T-47D breast
[3] = test system: 786-0 renal
[4] = test system: MDA-MB-231 breast
[5] = test system: ACHN renal
[6] = test system: DMS 114 small cell lung
[7] = test system: MCF7 breast
[8] = test system: HCC-2998 colon
[9] = test system: MDA-MB-435
[10] = test system: HS 578T breast
[11] = test system: OVCAR-8 ovarian
[12] = test system: NCI-H522 lung
[13] = test system: DMS 273 small cell lung
[14] = test system: BT-549 breast
[15] = test system: TK-10 renal
[16] = test system: SR leukemia
[17] = test system: CCRF-CEM leukemia
[18] = test system: DU-145 prostate
[19] = test system: HOP-92 NSCLC
[20] = test system: SNB-75 CNS
[21] = test system: SF-539 CNS
[22] = test system: SNB-19 CNS
[23] = test system: SF-295 CNS
[24] = test system: K-562 leukemia
[25] = test system: RXF 393 renal
[26] = test system: SK-MEL-5 melanoma
[27] = test system: EKVX NSCLC
[28] = test system: LOX IMVI melanoma
[29] = test system: HT29 colon
[30] = test system: HCT-116 colon
[31] = test system: OVCAR-4 ovarian
[32] = test system: UO-31 renal
[33] = test system: IGROV1 ovarian
[34] = test system: RPMI-8226 leukemia
[35] = test system: HL-60(TB) leukemia
[36] = test system: A549 NSCLC
[37] = test system: HOP-62 NSCLC
[38] = test system: COLO 205 colon
[39] = test system: SF-268 CNS
[40] = test system: SK-OV-3 ovarian
[41] = test system: CAKI-1 renal
[42] = test system: UACC-62 melanoma
[43] = test system: OVCAR-3 ovarian
[44] = test system: MOLT-4 leukemia
[45] = test system: A498 renal
[46] = test system: U251 CNS
[47] = test system: NCI-H23 lung
[48] = test system: MDA-N
[49] = test system: NCI/ADR-RES ovarian
[50] = test system: NCI-H226 lung
[51] = test system: OVCAR-5 ovarian
[52] = test system: SK-MEL-28 melanoma
[53] = test system: KM12 colon
[54] = test system: HCT-15 colon
[55] = test system: M14 melanoma
[56] = test system: SN12C renal
[57] = test system: NCI-H460 lung
[58] = test system: UACC-257 melanoma
[59] = test system: SK-MEL-2 melanoma
[60] = test system: SW-620 colon
[61] = test system: MALME-3M melanoma

NC(=O)c1cn(C2OC(CO)C(O)C2O)c2ncnc(N)c12 (stereo not drawn)
0.00574 µM: TGI [1]
118 nM [middle of 4 runs]: TGI [13]
0.0523 µM: TGI [2]
0.0684 µM: TGI [3]
0.148 µM and 0.0759 µM: TGI [17]
0.0487 µM: TGI [18]
0.205 µM and 0.326 µM: TGI [6]
0.103 µM: TGI [5]
0.102 µM: TGI [4]
0.383 µM and 0.904 µM and 0.0921 µM: TGI [11]
0.0946 µM: TGI [16]
0.0707 µM: TGI [15]
0.036 µM: TGI [9]
216 nM [middle of 4 runs]: TGI [8]
active: GI50 [7] 0.0207 µM | GI50 [12] 0.0482 µM and 0.021 µM | GI50 [13] 0.0875 µM and 0.07 µM | GI50 [16] 0.0128 µM | GI50 [17] 0.00559 µM and 0.0246 µM and 0.00627 µM
0.206 µM and 0.0701 µM: TGI [12]
0.0758 µM: TGI [10]
0.0389 µM: TGI [14]

C=CCC(CNC(=O)OCc1ccccc1)O[Si](C)(C)C(C)(C)C (stereo not drawn)
30.8 µM: TGI [38]
70.1 µM: TGI [44]
64.8 µM: TGI [12]
71.6 µM: TGI [51]
> 100 µM: TGI [19] | TGI [1] | TGI [20] | TGI [2] | TGI [5] | TGI [22] | TGI [23] | TGI [24] | TGI [8] | TGI [31] | TGI [9] | TGI [10] | TGI [36] | TGI [37] | TGI [39] | TGI [11] | TGI [40] | TGI [41] | TGI [42] | TGI [43] | TGI [45] | TGI [47] | TGI [48] | TGI [49] | TGI [52] | TGI [53] | TGI [54] | TGI [55] | TGI [56] | TGI [14] | TGI [15] | TGI [57] | TGI [17] | TGI [60] | TGI [18]
83.7 µM: TGI [58]
47.1 µM: TGI [28]
46.4 µM: TGI [16]
98.7 µM: TGI [3]
73.7 µM: TGI [30]
85.8 µM: TGI [50]
84.3 µM: TGI [33]
37 µM: TGI [4]
51.9 µM: TGI [35]
31.8 µM: TGI [26]
74.9 µM: TGI [27]
34.9 µM: TGI [59]
93.2 µM: TGI [21]
57.7 µM: TGI [7]
59.1 µM: TGI [29]
47.6 µM: TGI [25]
79.5 µM: TGI [46]
64.9 µM: TGI [34]
63.1 µM: TGI [32]

Cc1cc(S(=O)(=O)Nc2nnc3c(C(F)(F)F)cc(Cl)cn23)c(S)cc1Cl
> 100 µM: TGI [19] | TGI [1] | TGI [20] | TGI [2] | TGI [3] | TGI [61] | TGI [21] | TGI [4] | TGI [5] | TGI [22] | TGI [24] | TGI [7] | TGI [25] | TGI [26] | TGI [27] | TGI [28] | TGI [8] | TGI [29] | TGI [30] | TGI [31] | TGI [32] | TGI [33] | TGI [9] | TGI [34] | TGI [35] | TGI [10] | TGI [36] | TGI [37] | TGI [38] | TGI [39] | TGI [11] | TGI [40] | TGI [41] | TGI [42] | TGI [43] | TGI [44] | TGI [45] | TGI [46] | TGI [12] | TGI [48] | TGI [49] | TGI [50] | TGI [51] | TGI [52] | TGI [53] | TGI [54] | TGI [55] | TGI [56] | TGI [14] | TGI [15] | TGI [57] | TGI [16] | TGI [58] | TGI [17] | TGI [59] | TGI [60] | TGI [18]

O=C(O)c1c(O)c2cc(Br)ccc2oc1=O
> 100 µM: TGI [19] | TGI [1] | TGI [20] | TGI [2] | TGI [3] | TGI [61] | TGI [21] | TGI [4] | TGI [5] | TGI [22] | TGI [23] | TGI [24] | TGI [7] | TGI [25] | TGI [26] | TGI [27] | TGI [28] | TGI [8] | TGI [29] | TGI [30] | TGI [31] | TGI [33] | TGI [9] | TGI [34] | TGI [35] | TGI [10] | TGI [36] | TGI [37] | TGI [38] | TGI [39] | TGI [11] | TGI [41] | TGI [42] | TGI [43] | TGI [44] | TGI [45] | TGI [46] | TGI [47] | TGI [12] | TGI [48] | TGI [49] | TGI [50] | TGI [51] | TGI [52] | TGI [54] | TGI [55] | TGI [56] | TGI [14] | TGI [15] | TGI [57] | TGI [16] | TGI [58] | TGI [17] | TGI [59] | TGI [60] | TGI [18]
